The text below walks through data of patent US11512085B2, “Heteroaryl compound having drug activity” (SHANGHAI DUDE MEDICAL TECHNOLOGY CO., LTD, priority 2017, dated 2022).

The target in test [1] is Lck (Homo sapiens, UniProt P06239). As to the kind of experiment: Btk selectivity over Lck (same kinase method, Btk replaced). Conditions: ratio of IC50 values. In kind it is biochemical. The method, then:
Other kinases (e.g., inhibitory activity of Lck and LynA is determined by replacing the Btk with various kinases and performing operations the same as that in the above method).

Test [2] deals with p-PLCγ/t-PLCγ. Description: Western blotting of p-PLCγ/t-PLCγ in anti-IgG stimulated DOHH2 cells. In kind it is cell-based. Particulars: DOHH2 cells, 5, 100, 2000 nM, 1 h, anti-IgG stimulation. On the procedure:
Biological Embodiment 4: Analysis of Influences of Test Compounds on p-Btk/t-Btk, p-PLCγ/t-PLCγ and p-Erk/t-Erk Expression Levels of DOHH2 Cells by Virtue of Western Blotting
1) DOHH2 cells on a logarithmic phase were collected;
2) a cell concentration was adjusted to a needed concentration;
3) 2 ml of cell suspension was added into a 6-well plate for performing culture, three different concentrations, that is, 5 nM, 100 nM and 2000 nM, of test samples were respectively set, and each concentration was repeated once;
4) test samples were added into plate wells, and DMSO served as control, wherein a final concentration of the DMSO was 0.1%;
5) culture was performed for 1 h; and […]
6. protein extraction and quantification […]
5) a protein concentration was determined by using Pierce™ BCA Protein Assay Kit; and
6) according to BCA protein quantification results, all samples were diluted to the same final concentration by adding 4×LDS sample buffer and 10× sample reducing agent into the RIPA buffer solution, and the solution was heated at 100° C. for 10 min. […]
10) chemiluminiscence was detected by Tanon 5200 multi.
7. Quantification of strip intensity
Intensity of each strip was quantified by using Image quant densitometry software. […]

The test system of test [3] is WSU-DLCL-2. As to the kind of experiment: In vitro tumor cell proliferation (CellTiter-Glo), WSU-DLCL-2. In kind it is cell-based. Conditions: Homo sapiens, WSUDLCL2; WSU-DLCL-2, 72 h; read-out: Growth IC50. The method, then:
(§1) Biological Embodiment 8: Study on Effects of Active Compounds for Inhibiting In Vitro Tumor Cell Proliferation
(§2) Promega CellTiter-Glo cell activity detection kit by luminescence (Promega-G7573).
(§3) Tumor cell lines were cultured in a 5% of CO2 incubator at 37° C. according to respective culture conditions; and periodic passage was performed, and cells positioned in a logarithmic phase were taken for planking.
(§4) 3) 90 μL of cell suspension was added into each well of the culture plate, and a culture solution containing no cell was added into blank control;
(§5) 4) the culture plate was cultured overnight in the 5% of CO2 incubator having relative humidity of 100% at 37° C.
(§6) Preparation of a 400× compound storage plate: the compound was diluted from the maximum concentration gradient to the lowest concentration with DMSO. […]
(§7) The following steps were performed according to the specification of the Promega CellTiter-Glo cell activity detection kit by luminescence (Promega-G7573). […]
(§8) 9) the luminescence signal was detected on the 2104 EnVision plate reader.

The test system of test [4] is Ramos. Description: In vitro tumor cell proliferation (CellTiter-Glo), Ramos. It counts as cell-based. Particulars: Homo sapiens, 72 h, read-out: Growth IC50. On the procedure: as §1, §2, §3, §4, §5, §6, §7, §8

Lck, sequence (P06239 whole entry): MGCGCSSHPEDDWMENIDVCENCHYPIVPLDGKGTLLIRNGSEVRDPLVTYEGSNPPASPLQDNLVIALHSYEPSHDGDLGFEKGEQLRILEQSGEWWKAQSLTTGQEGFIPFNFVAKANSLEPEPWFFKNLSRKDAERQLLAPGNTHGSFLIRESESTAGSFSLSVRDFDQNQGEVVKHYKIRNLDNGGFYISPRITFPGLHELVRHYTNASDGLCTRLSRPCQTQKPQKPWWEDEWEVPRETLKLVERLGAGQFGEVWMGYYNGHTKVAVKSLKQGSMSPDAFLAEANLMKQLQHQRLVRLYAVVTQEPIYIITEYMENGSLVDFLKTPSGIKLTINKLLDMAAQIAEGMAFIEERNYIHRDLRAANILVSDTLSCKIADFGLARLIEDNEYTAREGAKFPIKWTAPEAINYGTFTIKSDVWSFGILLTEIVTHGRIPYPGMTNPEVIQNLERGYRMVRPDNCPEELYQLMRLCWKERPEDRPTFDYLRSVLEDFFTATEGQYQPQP

For the compound `C=CC(=O)NN1CCCC(n2nc(-c3ccc(Oc4ccccc4)cc3)c3c(N)ncnc32)C1` (stereo not shown) [Embodiment 6, N-(3-(4-amino-3-(4-phenoxyphenyl)-1H-pyrazolo[3,4-D]pyrimidine-1-yl)-1-piperidyl)-acrylamide], in test [1], the “Lck[IC50]/Btk[IC50]” value was 285. Moreover, the “relative level of p-PLCγ/t-PLCγ” value in test [2] is reported as “obviously decreased”. The half-maximal inhibitory concentration (IC50) in test [3] is 0.921 µM; in test [4] it was 1.4 µM.
